Where “and” joins values, the source holds several entries; their conditions need not be identical. Equal values may be shown once. Read-outs that look alike come from different tables or passages of the source.
What was measured:
MAPK14 = system: MAPK14; design: method as in Jafari et al., Nat. Protoc. 2014; settings: MAPK14, living HL-60 cells, ref Jafari et al., Nat. Protoc. 2014, cited from earlier work
MAPKAPK2 phosphorylation = experiment: MAPKAPK2 phosphorylation-dependent electrophoretic mobility shift (PDEMS) immunoblot, living HL-60 cells; settings: 20 µM inhibitor
GSK-3α = target: T1, GSK-3α (Homo sapiens, UniProt P49840); experiment: CETSA in living HL-60 cells, immunoblot; assay type: cell-based
T1 construct: parallel detection of MAPK14, MAPKAPK2, MAPKAPK3, and GSK-3α; endogenous in cells; host or cells: HL-60 (ATCC CCL-240), living cells or cell extract
T1 sequence (P49840 whole entry): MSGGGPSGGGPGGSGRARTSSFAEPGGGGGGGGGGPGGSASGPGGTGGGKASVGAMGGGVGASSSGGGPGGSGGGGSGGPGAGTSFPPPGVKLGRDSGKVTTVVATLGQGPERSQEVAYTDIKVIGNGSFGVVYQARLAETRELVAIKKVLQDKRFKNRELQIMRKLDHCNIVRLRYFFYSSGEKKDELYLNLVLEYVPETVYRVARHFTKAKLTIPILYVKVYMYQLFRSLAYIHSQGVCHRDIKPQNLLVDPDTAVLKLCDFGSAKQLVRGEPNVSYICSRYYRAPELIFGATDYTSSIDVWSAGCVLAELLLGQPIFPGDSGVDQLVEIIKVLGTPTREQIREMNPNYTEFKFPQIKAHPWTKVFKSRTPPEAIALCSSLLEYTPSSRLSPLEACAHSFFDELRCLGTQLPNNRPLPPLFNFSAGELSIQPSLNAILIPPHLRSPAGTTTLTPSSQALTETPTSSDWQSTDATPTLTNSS
Experimental: (§1) First, we conducted CETSA experiments according to Jafari et al.. […] Subsequent SDS-PAGE and immunoblotting were performed according to optimized conditions allowing for parallel detection of MAPK14, MAPKAPK2, MAPKAPK3, and GSK-3α (Supplementary Figure S1).
(§2) HL-60 cells (ATCC No. CCL-240) were expanded to about […] in 80 mL cell culture medium (RPMI-1640 supplemented with 10% (v/v) FBS, 1% (v/v) penicillin-streptomycin and 1% (v/v) L-glutamine solution) and divided into four aliquots (20 mL each, 25 million cells per flask). […] The same volume of DMSO was added to the remaining aliquot serving as the vehicle (DMSO) control. After incubation (1 h, 37 °C, 5% CO2, in cell culture CO2 incubator), the cell suspensions were transferred into 50 mL conical tubes, cell number and viability were determined, and after centrifugation (300 relative centrifugal force (rcf), 3 min, room temperature (r.t.)), the supernatants were completely removed and discarded. The cells were washed using 20 mL Dulbecco’s phosphate-buffered saline (PBS), respectively, by resuspension and centrifugation (300 rcf, 3 min, r.t.). After the complete removal of the supernatants, the cells were transferred into pre-weighed 2 mL Eppendorf tubes using 0.5 mL PBS (r.t.), respectively, for resuspending. After centrifugation (300 rcf, 3 min, r.t.) and removing as much as possible of the supernatants, the cell wet weights were determined.
(§3) The suspensions were shortly centrifuged (1 s or less) using a benchtop centrifuge that was equipped with an inset for PCR tubes to release trapped air and to achieve an even liquid level without pelleting the cells. The 100 µL cell suspensions were then temperature treated by a 7 min pre-incubation at r.t., a 3 min incubation at the following different temperatures in the PCR cycler (DNA Engine Tetrad 2, lid temperature 70 °C, gradient block 1: 36–55 °C, gradient block 2: 48–67 °C), and a 3 min post-incubation at r.t. in a metal heating block for uniform heat dissipation.
(§4) The cells were lysed by four freeze/thaw cycles consisting of thawing the samples (in a heat block set to 25 °C and shaking at 1250 rpm) accompanied by mixing them several times by inversion and then shock freezing them again in liquid nitrogen. The resulting lysates were kept cold (on ice or 4 °C) from then on. After centrifugation (20,000 rcf, 30 min, 4 °C) to pellet the cell debris together with precipitated and aggregated proteins, the supernatants were recovered and, after determining the total protein concentration (Pierce 660 nm Protein Assay, BSA as standard), the resulting cell extracts containing the fraction of soluble, non-denatured proteins were shock frozen in liquid nitrogen and stored at −80 °C.
(§5) For each sample set comprising either ten temperature range samples or ten compound concentration range samples, the same volume of the cell extracts containing the fraction of soluble, non-denatured proteins was used for further analysis. This volume was determined using the two lowest temperature samples (36.5 and 41.2 °C) per temperature range sample set so that they contained an average of 5 µg total protein (e.g., 2.78 µL for all temperature range samples of a sample set whose two lowest temperature samples contain an average of 1.8 mg/mL protein). For the compound concentration range experiments, all samples of a set were used for averaging.

MAPKAPK3 [1] = target: T2, MAPKAPK3 (Homo sapiens, UniProt Q16644); experiment: CETSA in living HL-60 cells, immunoblot; assay type: cell-based
T2 sequence (Q16644 whole entry): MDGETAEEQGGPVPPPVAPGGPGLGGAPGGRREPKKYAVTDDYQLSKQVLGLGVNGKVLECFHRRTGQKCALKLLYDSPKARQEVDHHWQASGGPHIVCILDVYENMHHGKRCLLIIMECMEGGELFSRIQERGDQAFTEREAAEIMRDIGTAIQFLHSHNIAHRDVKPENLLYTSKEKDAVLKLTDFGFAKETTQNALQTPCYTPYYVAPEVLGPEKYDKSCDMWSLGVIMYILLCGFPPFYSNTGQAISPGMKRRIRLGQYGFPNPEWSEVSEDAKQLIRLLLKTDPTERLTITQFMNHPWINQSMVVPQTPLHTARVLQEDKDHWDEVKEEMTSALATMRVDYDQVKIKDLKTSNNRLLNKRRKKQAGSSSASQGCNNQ
Experimental: as §1, §2, §3, §4, §5

MAPKAPK2 [2] = target: T3, MAPKAPK2 (Homo sapiens, UniProt P49137); experiment: CETSA in living HL-60 cells, immunoblot; assay type: cell-based; settings: for Top: top plateau of melting curve fit
T3 sequence (P49137 whole entry): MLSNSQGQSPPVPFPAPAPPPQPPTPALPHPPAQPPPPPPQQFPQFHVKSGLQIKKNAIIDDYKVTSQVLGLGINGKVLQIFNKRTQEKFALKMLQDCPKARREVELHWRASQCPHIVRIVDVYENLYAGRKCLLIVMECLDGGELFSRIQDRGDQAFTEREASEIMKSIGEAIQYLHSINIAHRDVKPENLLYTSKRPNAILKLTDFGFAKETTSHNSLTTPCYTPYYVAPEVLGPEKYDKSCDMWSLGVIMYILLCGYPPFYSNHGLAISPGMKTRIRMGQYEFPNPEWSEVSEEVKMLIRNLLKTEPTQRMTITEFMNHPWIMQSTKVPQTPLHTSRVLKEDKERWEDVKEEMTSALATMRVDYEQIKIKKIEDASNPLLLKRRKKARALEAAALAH
Experimental: as §1, §2, §3, §4, §5

HN1L = target: T4, HN1L (Homo sapiens, UniProt Q9H910); experiment: TPP-CCR in living HL-60 cells; settings: for Hill slope (HN1L): living HL-60 cells, […] °C, TMT-MS
T4 sequence (Q9H910 1-190): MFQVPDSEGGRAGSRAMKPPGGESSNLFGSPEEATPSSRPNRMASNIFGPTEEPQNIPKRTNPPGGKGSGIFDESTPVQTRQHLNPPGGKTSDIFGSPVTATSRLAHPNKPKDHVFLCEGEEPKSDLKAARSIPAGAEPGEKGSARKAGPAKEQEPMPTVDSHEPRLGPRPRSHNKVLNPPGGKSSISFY

MAPK8 = MAPK8 (Homo sapiens, UniProt P45983); experiment: TPP-CCR in living HL-60 cells; settings: […] °C, TMT-MS
Chain of MAPK8 (P45983 whole entry): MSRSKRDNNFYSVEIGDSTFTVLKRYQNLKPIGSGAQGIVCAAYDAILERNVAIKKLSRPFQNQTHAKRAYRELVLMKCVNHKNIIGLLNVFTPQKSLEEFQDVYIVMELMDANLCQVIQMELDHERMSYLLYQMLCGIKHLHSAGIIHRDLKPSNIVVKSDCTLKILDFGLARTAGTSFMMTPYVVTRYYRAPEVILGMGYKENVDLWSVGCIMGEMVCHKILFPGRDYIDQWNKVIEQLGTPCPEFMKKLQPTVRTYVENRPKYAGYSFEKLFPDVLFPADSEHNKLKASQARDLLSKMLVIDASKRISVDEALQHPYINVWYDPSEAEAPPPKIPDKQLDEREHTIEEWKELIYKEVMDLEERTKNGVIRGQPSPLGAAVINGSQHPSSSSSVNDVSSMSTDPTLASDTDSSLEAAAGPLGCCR

MYLK = MYLK (Homo sapiens, UniProt Q15746); experiment: TPP-TR in living HL-60 cells; assay type: cell-based; settings: 20 μM, single set (no replicates)
Chain of MYLK (Q15746 whole entry): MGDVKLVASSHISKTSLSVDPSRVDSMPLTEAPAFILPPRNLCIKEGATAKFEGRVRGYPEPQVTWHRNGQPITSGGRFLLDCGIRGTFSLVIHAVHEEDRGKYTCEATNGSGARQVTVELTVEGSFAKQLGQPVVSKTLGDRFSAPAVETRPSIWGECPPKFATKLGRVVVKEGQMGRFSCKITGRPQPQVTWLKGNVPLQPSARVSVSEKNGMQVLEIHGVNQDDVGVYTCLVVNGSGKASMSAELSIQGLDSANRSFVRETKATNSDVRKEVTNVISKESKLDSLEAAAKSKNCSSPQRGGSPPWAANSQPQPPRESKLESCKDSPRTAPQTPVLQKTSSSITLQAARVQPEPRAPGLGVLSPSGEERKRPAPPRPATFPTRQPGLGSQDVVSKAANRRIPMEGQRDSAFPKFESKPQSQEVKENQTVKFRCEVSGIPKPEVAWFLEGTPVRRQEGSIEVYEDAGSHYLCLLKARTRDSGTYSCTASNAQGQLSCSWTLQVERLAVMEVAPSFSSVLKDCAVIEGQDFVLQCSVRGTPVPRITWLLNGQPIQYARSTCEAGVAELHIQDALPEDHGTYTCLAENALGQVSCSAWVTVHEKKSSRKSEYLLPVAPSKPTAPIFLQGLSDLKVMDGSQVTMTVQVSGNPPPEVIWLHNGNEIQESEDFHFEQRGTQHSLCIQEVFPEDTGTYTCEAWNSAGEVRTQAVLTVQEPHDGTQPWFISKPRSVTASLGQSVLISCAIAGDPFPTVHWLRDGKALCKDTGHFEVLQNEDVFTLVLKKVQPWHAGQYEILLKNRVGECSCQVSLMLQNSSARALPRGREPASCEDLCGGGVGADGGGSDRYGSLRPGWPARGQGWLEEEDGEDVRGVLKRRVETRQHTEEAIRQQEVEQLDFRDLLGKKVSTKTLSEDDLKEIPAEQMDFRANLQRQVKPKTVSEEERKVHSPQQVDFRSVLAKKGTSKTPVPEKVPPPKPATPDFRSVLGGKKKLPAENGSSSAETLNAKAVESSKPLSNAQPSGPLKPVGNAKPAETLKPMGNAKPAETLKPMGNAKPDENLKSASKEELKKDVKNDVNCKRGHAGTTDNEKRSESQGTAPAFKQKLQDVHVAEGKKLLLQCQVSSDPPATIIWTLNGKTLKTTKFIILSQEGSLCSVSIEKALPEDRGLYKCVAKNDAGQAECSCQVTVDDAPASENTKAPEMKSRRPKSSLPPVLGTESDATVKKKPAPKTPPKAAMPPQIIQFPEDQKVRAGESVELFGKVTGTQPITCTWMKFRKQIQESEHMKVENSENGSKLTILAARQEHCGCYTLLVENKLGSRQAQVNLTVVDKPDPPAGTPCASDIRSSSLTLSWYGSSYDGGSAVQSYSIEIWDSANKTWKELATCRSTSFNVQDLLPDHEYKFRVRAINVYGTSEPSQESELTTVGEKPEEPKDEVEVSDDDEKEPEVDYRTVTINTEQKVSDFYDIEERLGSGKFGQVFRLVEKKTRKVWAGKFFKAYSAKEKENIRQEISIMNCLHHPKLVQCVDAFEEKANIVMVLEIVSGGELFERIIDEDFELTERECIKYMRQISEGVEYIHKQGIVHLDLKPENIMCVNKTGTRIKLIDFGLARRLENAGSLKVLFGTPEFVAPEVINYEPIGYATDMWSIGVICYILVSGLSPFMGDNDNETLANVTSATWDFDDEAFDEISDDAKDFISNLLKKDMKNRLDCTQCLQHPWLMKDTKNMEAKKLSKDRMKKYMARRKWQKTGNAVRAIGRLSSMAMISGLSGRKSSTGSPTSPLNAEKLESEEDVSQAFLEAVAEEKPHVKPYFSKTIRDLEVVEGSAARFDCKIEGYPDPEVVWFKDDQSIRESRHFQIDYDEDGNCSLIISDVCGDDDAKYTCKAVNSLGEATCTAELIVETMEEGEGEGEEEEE
Experimental: as §2, §3, §4
(§6) For each sample set comprising ten temperature range samples, the same volume of the cell extracts containing the fraction of soluble, non-denatured proteins was used for further analysis. Volume calculation for 30 µg total protein was performed as described for SDS-PAGE and immunoblotting. The calculated volume was respectively transferred into 0.5 mL LoBind Eppendorf tubes and evaporated to dryness using vacuum centrifugation (SpeedVac concentrator, Eppendorf, Hamburg, Germany). The dried proteins were each reconstituted in 10 µL of SDS sample buffer (containing DTT) and incubated for 30 min at 50 °C with shaking (700 rpm). 1.111 µL 1 M iodoacetamide (IAA) was added to each sample (final 100 mM IAA), then the samples were mixed and incubated for 30 min at r.t. in the dark. Sample quality was controlled by SDS-PAGE/silver staining using 0.926 µL of each sample (2.5 µg on average for the two lowest temperature samples; 26-well 4–12% Bis-Tris polyacrylamide gels, Novex NuPAGE, Thermo Scientific; 15 min at 50 V, about 1.5 h at 200 V using the recommended MOPS running buffer).

MAPKAPK3 [3] = target: T2, MAPKAPK3; experiment: TPP-TR in living HL-60 cells; assay type: cell-based; settings: 20 μM, single set (no replicates)
Experimental: as §2, §3, §4, §6

MAPKAPK2 [4] = target: T3, MAPKAPK2; experiment: TPP-TR in living HL-60 cells; assay type: cell-based; settings: 20 μM, single set (no replicates)
Experimental: as §2, §3, §4, §6

[5] = GSK-3α, living cells, immunoblot
[6] = living HL-60 cells, 20 µM inhibitor, immunoblot
[7] = living HL-60 cells, 20 µM inhibitor, immunoblot, read-out: ΔTm to DMSO (GSK-3α)
[8] = MAPKAPK3, living cells, immunoblot
[9] = living HL-60 cells, 20 µM inhibitor, immunoblot, 20 µM
[10] = MAPKAPK2, living cells, immunoblot

Row | SMILES | Tagg values (given as averages ± s.d.), AlphaScreen (MAPK14) | Tagg values (given as averages ± s.d.), Western blot (MAPK14) | MAPKAPK2 phosphorylation (band pattern, PDEMS) (MAPKAPK2 phosphorylation) | Tm (GSK-3α; [5]) | Tm (GSK-3α) (GSK-3α; [6]) | ΔTm at 20 µM (GSK-3α; [7]) | Tm (MAPKAPK3 [1]; [8]) | Tm (MAPKAPK3) (MAPKAPK3 [1]; [6]) | EC50 (HN1L) | Hill slope (HN1L) (HN1L) | Hill slope (MAPK8) (MAPK8) | thermal stabilization in melting curves (MYLK) (MYLK) | thermal stabilization in melting curves (MAPKAPK3) (MAPKAPK3 [3]) | thermal stabilization in melting curves (MAPKAPK2) (MAPKAPK2 [4]) | Top (MAPKAPK2 [2]; MAPKAPK2, living cells) | also measured
1 | Cn1c(NC[C@@H](N)Cc2ccccc2)nc(-c2ccncc2)c(-c2ccc3ccccc3c2)c1=O [AMG-548] | 59.2 ± 0.9 °C | 60.6 ± 1.0 °C | inhibited apparent MAPKAPK2 phosphorylation | 53.26 °C | 53.26 °C | -0.71 °C | 54.68 °C | 54.68 °C | 389 nM | 0.39 | 0.24 | thermal stabilizations | thermal stabilizations | thermal stabilizations | – | ΔTm to DMSO (MAPKAPK3 [1]; [8]): 6.62 °C; ΔTm to DMSO (MAPKAPK3) (MAPKAPK3 [1]; [9]): 6.6 °C and 6.62 °C; Tm (MAPKAPK2 [2]; [10]): 54.39 °C; ΔTm to DMSO (MAPKAPK2 [2]; [10]): 5.18 °C; Tm (MAPKAPK2) (MAPKAPK2 [2]; [6]): 54.39 °C; ΔTm to DMSO (MAPKAPK2) (MAPKAPK2 [2]; [9]): 5.2 °C and 5.18 °C
2 | Cc1cnc(Nc2ccc(F)cc2Cl)nc1-c1c[nH]c(C(=O)N[C@H](CO)c2cccc(Cl)c2)c1 [ERK 11e] | no substantial response (same as DMSO) | no substantial response (same as DMSO) | double band | 54.11 °C | 54.11 °C | – | – | – | 110 nM | 0.20 | – | – | – | – | 36.1% | ΔTm at 20 µM (GSK-3α; HL-60, read-out: ΔTm to DMSO (GSK-3α)): 0.14 °C; ΔTm at 20 µM (MAPKAPK3 [1]; HL-60, read-out: ΔTm to DMSO (MAPKAPK3)): 0.26 °C; ΔTm at 20 µM (MAPKAPK2 [2]; HL-60, read-out: ΔTm to DMSO (MAPKAPK2)): -0.02 °C; Hill slope (HN1L; TPP-CCR, living cells, HN1L): 0.20
3 | C[S+]([O-])c1ccc(-c2nc(-c3ccncc3)c(-c3ccc(F)cc3)[nH]2)cc1 (centres unmarked) [SB203580] | – | – | inhibited apparent MAPKAPK2 phosphorylation | 54.03 °C | 54.03 °C | 0.05 °C | 51.56 °C | 51.56 °C | – | – | 0.44 | thermal stabilizations | thermal stabilizations | thermal stabilizations | 87.0% | ΔTm to DMSO (GSK-3α; [5]): 0.0529 °C
